Experimental data reported in patent US20160002299A1, “NON-IMMUNOSUPPRESSIVE CYCLOSPORIN DERIVATIVES AS ANTIVIRAL AGENTS” (UCL BUSINESS PLC, priority 2013, published 2016).

How the values were obtained:
HIV-1 [1] = experiment: HIV-1 replication in monocyte derived macrophages (Gag p24 staining, infected cells counted); assay type: cell-based; settings: primary MDM, NL4.3 Bal, MOI 0.2, 10 μM Compound 1 vs DMSO control, FIG. 2
Description: (§1) Primary monocyte-derived macrophages (MDM) were prepared from fresh blood from healthy volunteers. Peripheral blood mononuclear cells were isolated by Ficoll-Hypaque (Axis-Shield) density centrifugation. The isolated cells were washed with PBS and plated in RPMI (Invitrogen) supplemented with 10% heat-inactivated autologous human serum (HS) and 40 ng/ml macrophage colony stimulating factor (M-CSF) (R&D systems). The medium was then refreshed after 3 days (RPMI 1640 with 10% HS), removing any remaining non-adherent cells. After 6 days, media was replenished with
(§2) RPMI containing 5% type AB HS (Sigma-Aldrich-Aldrich). Replicate experiments were performed with cells derived from different donors.
(§3) Virus particles were produced by transient transfection of HEK293T cells. 3.5 μg of molecular clone DNA; NL4.3 Bal was transfected using Fugene 6 transfection reagent (Promega). Virus supernatants were harvested 48 hr, 72 hr and 96 hr post transfection. […] All virus preparations were quantified by reverse transcriptase (RT) enzyme linked immunosorbant assay (ELISA) (Roche). […]
(§4) Institute of Biological Standards AIDS Reagents Programme) and a secondary antibody linked to beta galactosidase. […] Cells were stained for Gag p24 at specific time points after infection and infected colonies counted. […]

IFN-β = IFN-β ELISA of supernatants of HIV-1 infected monocyte derived macrophages; assay type: cell-based, human; settings: HIV-1 infected MDM, 10 μM Compound 1, supernatants, FIG. 3
Description: as §1, §2, §3, §4

HIV-1 [2] = experiment: Single round HIV-1 infection of monocyte derived macrophages; assay type: cell-based; settings: MDM at MOI of 0.1-1, in the presence of Compound 1, FIG. 4
Description: as §1, §2, §3, §4

In the case of `C/C=C/C[C@@H](C)[C@@H](O)[C@H]1C(=O)N[C@@H](CC)C(=O)N(C)[C@H](Cc2ccc(C(=O)O)cc2)C(=O)N(C)[C@@H](CC(C)C)C(=O)N[C@@H](C(C)C)C(=O)N(C)[C@@H](CC(C)C)C(=O)N[C@@H](C)C(=O)N[C@H](C)C(=O)N(C)[C@@H](CC(C)C)C(=O)N(C)[C@@H](CC(C)C)C(=O)N(C)[C@@H](C(C)C)C(=O)N1C` [Compound 1], the “HIV-1 replication (number of infected cells)” value (HIV-1 [1]) is reported as “completely suppressed HIV-1 replication”, the “production of IFN-β” value (IFN-β) is reported as “elicited the production of IFN-β” and the “infection lower after single round infection” value (HIV-1 [2]) is reported as 5-7 fold.
